{
  "source": "paper PMC12846068",
  "about": "“Insights into Transport Function of the Murine Organic Anion-Transporting Polypeptide OATP1B2 by Comparison with Its Rat and Human Orthologues” (Toxics, 2025)",
  "molecules": {"B1": {"name": "mOATP1B2 (Mus musculus) (protein)", "chain": "MDQTQHPSKAAQPLRSEKTRHCDGFRIFLAALSFSYICKALGGVIMKSSITQIERRFDIPSSISGLIDGGFEIGNLLVIVFVSYFGSKLHRPKLIGTGCFIMGIGSILTALPHFFMGYYRYATENDISSLHNSTLTCLVNQTTSLTGTSPEIMEKGCEKGSNSYTWIYVLMGNMLRGIGETPIVPLGVSYIDDFAKEGNSSMYLGTLHTIAMIGPILGFIMSSVFAKLYVDVGYVDLRSVRITPQDARWVGAWWLGFIVNGLLCIICSIPFFFLPKIPKRSQKERKNSASLHVLKTDEDKNPVTNPTTQEKQAPANLTGFLWSLRSILTNEQYVIFLILTLLQISSFIGSFTYLFKFIEQQFGQTASQANFLLGVITIPTMASGMFLGGYLIKRLKLTLLGITKFVFFTTTMAYVFYLSYFLLICENKAFAGLTLTYDGMNPVDSHIDVPLSYCNSDCICDKNQWEPVCGENGVTYISPCLAGCKSFRGDKKLMNIEFYDCSCVSGSGFQKGNHSARLGECPRDKCKTKYYFYITFQVIISFFTALGSTSLMLILIRSVQPELKSLGMGFHSLVVRTLGGILAPVYYGALIDRTCMKWSVTSCGARGACRLYNSRLFGMIYVGLSIALKTPILLLYVALIYVMKRKMKRNDNKILENGRKFTDEGNPEPVNNNGYSCVPSDEKNSETPL"}, "B2": {"name": "rOATP1B2 (Rattus norvegicus) (protein)", "chain": "MDHTQQSRKAAEAQPSRSKQTRFCDGFKLFLAALSFSYICKALGGVVMKSSITQIERRFDIPSSISGLIDGGFEIGNLLVIVFVSYFGSKLHRPKLIGIGCFIMGIGSILTALPHFFMGYYKYAKENDIGSLGNSTLTCFINQMTSPTGPSPEIVEKGCEKGLKSHMWIYVLMGNMLRGIGETPIVPLGISYLDDFAKEGHTSMHLGTLHTIAMIGPILGFIMSSVFAKIYVDVGYVDLNSVRITPNDARWVGAWWLSFIVNGLLCITSSIPFFFLPKIPKRSQEERKNSVSLHAPKTDEEKKHMTNLTKQEEQDPSNMTGFLRSLRSILTNEIYVIFLILTLLQVSGFIGSFTYLFKFIEQQFGRTASQANFLLGIITIPTMATAMFLGGYIVKKFKLTSVGIAKFVFFTSSVAYAFQFLYFPLLCENKPFAGLTLTYDGMNPVDSHIDVPLSYCNSDCSCDKNQWEPICGENGVTYISPCLAGCKSFRGDKKPNNTEFYDCSCISNSGNNSAHLGECPRYKCKTNYYFYIILQVTVSFFTAMGSPSLILILMKSVQPELKSLAMGFHSLIIRALGGILAPIYYGAFIDRTCIKWSVTSCGKRGACRLYNSRLFGFSYLGLNLALKTPPLFLYVVLIYFTKRKYKRNDNKTLENGRQFTDEGNPDSVNKNGYYCVPYDEQSNETPL"}},
  "key": {"rOATP1B2": {"target": "T1, rOATP1B2 (Rattus norvegicus, UniProt Q9QZX8)", "T1 construct": "The full-length mOATP1B2 and rOATP1B2 consist of 689 and 678 amino acids", "T1 sequence (Q9QZX8 1-687)": "B2 chain", "test": "cis-inhibition of rOATP1B2-mediated E1S or TCA uptake in HEK293 cells", "format": "cell-based"}, "mOATP1B2": {"target": "T2, mOATP1B2 (Mus musculus, UniProt Q9JJL3)", "T2 construct": "The full-length mOATP1B2 and rOATP1B2 consist of 689 and 678 amino acids", "T2 sequence (Q9JJL3 1-689)": "B1 chain", "test": "cis-inhibition of mOATP1B2-mediated E1S or TCA uptake in HEK293 cells", "format": "cell-based", "description": "Inhibition experiments with mOATP1B2 and rOATP2B1 were carried out in triplicate as cis-inhibition. […] Inhibitory effects were calculated as a percentage of the net-uptake rates. […] The means ± average deviation (AD, for N = 2) were calculated from two experiments on two different days. The significance as a p-value was calculated using Student's t-test in Microsoft Excel."}, "hOATP1B3": {"target": "T3, hOATP1B3 (Homo sapiens, UniProt Q9NPD5)", "T3 sequence (Q9NPD5 1-702)": "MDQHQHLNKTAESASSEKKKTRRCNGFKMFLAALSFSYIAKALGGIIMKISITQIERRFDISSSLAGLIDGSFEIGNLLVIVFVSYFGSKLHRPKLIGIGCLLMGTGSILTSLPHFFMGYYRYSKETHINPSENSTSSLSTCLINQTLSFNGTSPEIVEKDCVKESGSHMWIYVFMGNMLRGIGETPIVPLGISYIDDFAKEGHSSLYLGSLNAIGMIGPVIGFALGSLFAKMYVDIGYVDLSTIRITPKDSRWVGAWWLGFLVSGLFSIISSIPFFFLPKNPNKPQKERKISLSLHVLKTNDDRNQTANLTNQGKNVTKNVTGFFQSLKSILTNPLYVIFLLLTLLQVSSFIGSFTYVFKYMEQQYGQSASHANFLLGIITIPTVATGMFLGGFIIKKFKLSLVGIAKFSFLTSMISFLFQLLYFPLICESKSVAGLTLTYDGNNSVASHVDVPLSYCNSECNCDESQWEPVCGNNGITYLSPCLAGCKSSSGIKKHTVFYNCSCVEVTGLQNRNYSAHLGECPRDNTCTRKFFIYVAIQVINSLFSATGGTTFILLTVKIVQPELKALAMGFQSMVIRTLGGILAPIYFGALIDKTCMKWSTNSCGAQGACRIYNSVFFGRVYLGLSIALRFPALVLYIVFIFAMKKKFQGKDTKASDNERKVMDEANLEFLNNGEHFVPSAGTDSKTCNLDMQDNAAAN", "test": "cis-inhibition of hOATP1B3-mediated TCA uptake in HEK293 cells", "format": "cell-based", "set-up": "expressed in transfected cells; host or cells: HEK-293, stably transfected", "details": "10 µM drug, 1 µM TCA, 10 min", "description": "(§1) Inhibitory effects were calculated as a percentage of the net-uptake rates.\n(§2) The means ± average deviation (AD, for N = 2) were calculated from two experiments on two different days. The significance as a p-value was calculated using Student’s t-test in Microsoft Excel."}, "hOATP1B1": {"target": "T4, hOATP1B1 (Homo sapiens, UniProt Q9Y6L6)", "T4 sequence (Q9Y6L6 1-691)": "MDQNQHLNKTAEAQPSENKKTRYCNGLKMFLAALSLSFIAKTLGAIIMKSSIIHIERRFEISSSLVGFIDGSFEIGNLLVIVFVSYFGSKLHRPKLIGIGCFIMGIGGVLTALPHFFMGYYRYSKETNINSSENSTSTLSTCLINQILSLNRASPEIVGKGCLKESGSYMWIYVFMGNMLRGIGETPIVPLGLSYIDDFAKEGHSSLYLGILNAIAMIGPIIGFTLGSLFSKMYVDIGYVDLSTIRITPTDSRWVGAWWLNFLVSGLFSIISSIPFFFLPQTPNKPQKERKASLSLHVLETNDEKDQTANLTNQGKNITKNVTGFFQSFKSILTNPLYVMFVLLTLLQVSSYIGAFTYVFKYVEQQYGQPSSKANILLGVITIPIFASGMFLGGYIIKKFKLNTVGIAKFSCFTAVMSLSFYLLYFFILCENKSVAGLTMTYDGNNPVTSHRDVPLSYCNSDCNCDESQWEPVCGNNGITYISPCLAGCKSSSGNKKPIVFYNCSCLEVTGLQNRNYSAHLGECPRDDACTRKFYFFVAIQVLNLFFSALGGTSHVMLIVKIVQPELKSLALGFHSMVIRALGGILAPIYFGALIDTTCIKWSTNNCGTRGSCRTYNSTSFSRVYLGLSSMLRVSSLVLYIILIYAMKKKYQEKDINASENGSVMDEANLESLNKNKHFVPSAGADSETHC", "test": "cis-inhibition of hOATP1B1-mediated E1S uptake in HEK293 cells", "format": "cell-based", "set-up": "expressed in transfected cells; host or cells: HEK-293, stably transfected", "details": "10 µM drug, 0.01 µM [3H]-E1S, 1 min", "description": "as §1, §2"}, "[1]": {"substrate": "C[C@H](CCC(=O)NCCS(=O)(=O)O)[C@H]1CC[C@H]2[C@@H]3[C@H](O)C[C@@H]4C[C@H](O)CC[C@]4(C)[C@H]3C[C@H](O)[C@]12C", "test": "cells, lysate or membranes", "details": "1 min, 37 °C, increasing unlabeled substrate with 10 nM 3H-substrate, pH 7.4"}, "[2]": {"details": "HEK293, 10 µM drug, 1 µM [3H]-E1S, 1 min, read-out: Inhibitory effect on rOATP1B2-mediated E1S uptake"}, "[3]": {"details": "HEK293, read-out: Inhibitory effect on rOATP1B2-mediated TCA uptake, 10 µM drug, 1 µM [3H]-TCA, 1 min"}, "[4]": {"details": "HEK293, 10 µM drug, 1 µM [3H]-E1S, 1 min, read-out: Inhibitory effect on mOATP1B2-mediated E1S uptake"}, "[5]": {"details": "HEK293, read-out: Inhibitory effect on mOATP1B2-mediated TCA uptake, 10 µM drug, 1 µM [3H]-TCA, 1 min"}, "[6]": {"details": "10 µM drug, substrates E1S and TCA not separated"}},
  "note": "Like-named read-outs stand apart in the source and are kept apart here.",
  "data": [
    {"molecule": "CC(C)c1nc(CN(C)C(=O)N[C@H](C(=O)N[C@@H](Cc2ccccc2)C[C@H](O)[C@H](Cc2ccccc2)NC(=O)OCc2cncs2)C(C)C)cs1", "note": "[Ritonavir, ritonavir]", "values": [
      {"measurement": "inhibition at 10 µM", "setting": "rOATP1B2; [2]", "value": 84, "unit": "%"},
      {"measurement": "inhibition at 10 µM", "setting": "rOATP1B2; [3]", "value": 78, "unit": "%"},
      {"measurement": "inhibition at 10 µM", "setting": "rOATP1B2; HEK293, read-out: Inhibitory effect on rOATP1B2-mediated substrate uptake (summary over E1S and TCA), 10 µM drug, substrates E1S and TCA not separated", "value": "> 70", "unit": "%"},
      {"measurement": "inhibition at 10 µM", "setting": "mOATP1B2; [4]", "value": 74, "unit": "%"},
      {"measurement": "inhibition at 10 µM", "setting": "mOATP1B2; [5]", "value": 71, "unit": "%"}
    ]},
    {"molecule": "CCCc1nc(C(C)(C)O)c(C(=O)O)n1Cc1ccc(-c2ccccc2-c2nnn[nH]2)cc1", "note": "[Olmesartan, olmesartan]", "values": [
      {"measurement": "Inhibitory effect on hOATP1B3-mediated TCA uptake", "setting": "hOATP1B3", "value": 29, "unit": "%"},
      {"measurement": "Inhibitory effect on hOATP1B3-mediated TCA uptake", "setting": "hOATP1B3; listed as olmesartan", "value": "less than 50%"},
      {"measurement": "Inhibitory effect on rOATP1B2-mediated substrate uptake (summary over E1S and TCA)", "setting": "rOATP1B2; [6]", "value": "below 50%"},
      {"measurement": "inhibition at 10 µM", "setting": "rOATP1B2; [2]", "value": 27, "unit": "%"},
      {"measurement": "inhibition at 10 µM", "setting": "rOATP1B2; [3]", "value": 32, "unit": "%"},
      {"measurement": "Inhibitory effect on mOATP1B2-mediated substrate uptake (summary over E1S and TCA)", "setting": "mOATP1B2; [6]", "value": "below 50%"},
      {"measurement": "inhibition at 10 µM", "setting": "mOATP1B2; [4]", "value": 18, "unit": "%"},
      {"measurement": "inhibition at 10 µM", "setting": "mOATP1B2; [5]", "value": 25, "unit": "%"},
      {"measurement": "Inhibitory effect on hOATP1B1-mediated E1S uptake", "setting": "hOATP1B1", "value": 18, "unit": "%"},
      {"measurement": "Inhibitory effect on hOATP1B1-mediated E1S uptake", "setting": "hOATP1B1; listed as olmesartan", "value": "less than 50%"}
    ]},
    {"molecule": "B1", "values": [
      {"measurement": "Km", "setting": "[1]; other: mOATP1B2-HEK293, net uptake", "value": "73 ± 11", "unit": "µM"}
    ]},
    {"molecule": "B2", "values": [
      {"measurement": "Km", "setting": "[1]; other: rOATP1B2-HEK293, net uptake", "value": "16 ± 3", "unit": "µM"}
    ]}
  ]
}
